Results as given in the supplement of paper PMC10307832.

Columns and labels:
Experiment in all cases: relative viability (nuclei count vs DMSO), 5 days (fraction); higher = more cells survive
[1] = test system: SK-MES-1
How it was run: (§1)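 Nuclei were stained with Hoechst during a one-step fixation (final 0.05% Triton X-100, 1% formaldehyde, 1 ug/ml Hoechst) carried out 5 days after dosing, then counted on 4× images. The cells, lung cancer lines in 1536-well plates, had been dosed by pin tool the day after seeding with one drug alone or a fixed anchor-drug dose plus five library-drug doses (not always all listed) in √10 steps. Relative viability is the nuclei count in treated wells divided by that in vehicle wells, and each value is the median of duplicate plates.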

[2] = test system: NCI-H1734
How it was run: as §1

[3] = test system: A-427
How it was run: as §1

[4] = test system: NCI-H2228
How it was run: as §1

[5] = test system: NCI-H2170
How it was run: as §1

[6] = test system: SW 1573
How it was run: as §1

[7] = test system: NCI-H1993
How it was run: as §1

[8] = test system: NCI-H1792
How it was run: as §1

[9] = test system: RERF-LC-KJ
How it was run: as §1

[10] = test system: HCC-366
How it was run: as §1

[11] = test system: NCI-H1755
How it was run: as §1

[12] = test system: LCLC-103H
How it was run: as §1

[13] = test system: NCI-H2342
How it was run: as §1

[14] = test system: HCC-827
How it was run: as §1

[15] = test system: UMC-11
How it was run: as §1

[16] = test system: NCI-H1975
How it was run: as §1

[17] = test system: NCI-H2347
How it was run: as §1

[18] = test system: LC-2-ad
How it was run: as §1

[19] = test system: NCI-H23
How it was run: as §1

[20] = test system: NCI-H650
How it was run: as §1

[21] = test system: SK-LU-1
How it was run: as §1

[22] = test system: NCI-H1915
How it was run: as §1

[23] = test system: NCI-H1355
How it was run: as §1

CCNC(=O)c1noc(-c2cc(C(C)C)c(O)cc2O)c1-c1ccc(CN2CCOCC2)cc1 [Luminespib] + O=C(c1cc(Cc2n[nH]c(=O)c3ccccc23)ccc1F)N1CCN(C(=O)C2CC2)CC1 [Olaparib] (partner 8 µM)
relative viability ([1]; first compound 0.002 µM): 0.713 | relative viability ([1]; first compound 0.006325 µM): 0.629 | relative viability ([1]; first compound 0.02 µM): 0.326 | relative viability ([1]; first compound 0.06325 µM): 0.17 | relative viability ([1]; first compound 0.2 µM): 0.157 | relative viability ([2]; first compound 0.002 µM): 0.646 | relative viability ([2]; first compound 0.006325 µM): 0.595 | relative viability ([2]; first compound 0.02 µM): 0.476 | relative viability ([2]; first compound 0.06325 µM): 0.152 | relative viability ([2]; first compound 0.2 µM): 0.13 | relative viability ([3]; first compound 0.002 µM): 0.782 | relative viability ([3]; first compound 0.006325 µM): 0.732 | relative viability ([3]; first compound 0.02 µM): 0.716 | relative viability ([3]; first compound 0.06325 µM): 0.445 | relative viability ([3]; first compound 0.2 µM): 0.251 | relative viability ([4]; first compound 0.002 µM): 0.595 | relative viability ([4]; first compound 0.006325 µM): 0.638 | relative viability ([4]; first compound 0.02 µM): 0.326 | relative viability ([4]; first compound 0.06325 µM): 0.128 | relative viability ([4]; first compound 0.2 µM): 0.142 | relative viability ([5]; first compound 0.002 µM): 0.659 | relative viability ([5]; first compound 0.006325 µM): 0.539 | relative viability ([5]; first compound 0.06325 µM): 0.468 | relative viability ([5]; first compound 0.2 µM): 0.16 | relative viability ([6]; first compound 0.002 µM): 0.445 | relative viability ([6]; first compound 0.006325 µM): 0.4 | relative viability ([6]; first compound 0.02 µM): 0.165 | relative viability ([6]; first compound 0.06325 µM): 0.101 | relative viability ([6]; first compound 0.2 µM): 0.0793 | relative viability ([7]; first compound 0.002 µM): 1.09 | relative viability ([7]; first compound 0.006325 µM): 0.953 | relative viability ([7]; first compound 0.02 µM): 0.617 | relative viability ([7]; first compound 0.06325 µM): 0.903 | relative viability ([7]; first compound 0.2 µM): 0.39 | relative viability ([8]; first compound 0.002 µM): 0.4 | relative viability ([8]; first compound 0.006325 µM): 0.298 | relative viability ([8]; first compound 0.02 µM): 0.271 | relative viability ([8]; first compound 0.06325 µM): 0.0723 | relative viability ([8]; first compound 0.2 µM): 0.0503 | relative viability ([9]; first compound 0.002 µM): 0.857 | relative viability ([9]; first compound 0.006325 µM): 0.934 | relative viability ([9]; first compound 0.02 µM): 0.49 | relative viability ([9]; first compound 0.06325 µM): 0.235 | relative viability ([9]; first compound 0.2 µM): 0.212 | relative viability ([10]; first compound 0.002 µM): 0.401 | relative viability ([10]; first compound 0.006325 µM): 0.345 | relative viability ([10]; first compound 0.02 µM): 0.424 | relative viability ([10]; first compound 0.06325 µM): 0.0205 | relative viability ([10]; first compound 0.2 µM): 0.0254 | relative viability ([11]; first compound 0.002 µM): 0.917 | relative viability ([11]; first compound 0.006325 µM): 0.808 | relative viability ([11]; first compound 0.02 µM): 0.759 | relative viability ([11]; first compound 0.06325 µM): 0.817 | relative viability ([11]; first compound 0.2 µM): 0.794 | relative viability ([12]; first compound 0.002 µM): 0.76 | relative viability ([12]; first compound 0.006325 µM): 0.73 | relative viability ([12]; first compound 0.02 µM): 0.78 | relative viability ([12]; first compound 0.06325 µM): 0.681 | relative viability ([12]; first compound 0.2 µM): 0.809 | relative viability ([13]; first compound 0.002 µM): 0.411 | relative viability ([13]; first compound 0.006325 µM): 0.512 | relative viability ([13]; first compound 0.02 µM): 0.324 | relative viability ([13]; first compound 0.06325 µM): 0.348 | relative viability ([13]; first compound 0.2 µM): 0.238 | relative viability ([14]; first compound 0.002 µM): 0.595 | relative viability ([14]; first compound 0.006325 µM): 0.64 | relative viability ([14]; first compound 0.02 µM): 0.537 | relative viability ([14]; first compound 0.06325 µM): 0.143 | relative viability ([14]; first compound 0.2 µM): 0.167 | relative viability ([15]; first compound 0.002 µM): 0.391 | relative viability ([15]; first compound 0.006325 µM): 0.403 | relative viability ([15]; first compound 0.02 µM): 0.401 | relative viability ([15]; first compound 0.06325 µM): 0.205 | relative viability ([15]; first compound 0.2 µM): 0.149 | relative viability ([16]; first compound 0.002 µM): 0.875 | relative viability ([16]; first compound 0.006325 µM): 0.802 | relative viability ([16]; first compound 0.02 µM): 0.919 | relative viability ([16]; first compound 0.06325 µM): 0.128 | relative viability ([16]; first compound 0.2 µM): 0.156 | relative viability ([17]; first compound 0.002 µM): 0.631 | relative viability ([17]; first compound 0.006325 µM): 0.617 | relative viability ([17]; first compound 0.02 µM): 0.7 | relative viability ([17]; first compound 0.06325 µM): 0.408 | relative viability ([17]; first compound 0.2 µM): 0.296 | relative viability ([18]; first compound 0.002 µM): 0.704 | relative viability ([18]; first compound 0.006325 µM): 0.713 | relative viability ([18]; first compound 0.02 µM): 0.866 | relative viability ([18]; first compound 0.06325 µM): 0.48 | relative viability ([18]; first compound 0.2 µM): 0.297 | relative viability ([19]; first compound 0.002 µM): 0.36 | relative viability ([19]; first compound 0.006325 µM): 0.333 | relative viability ([19]; first compound 0.02 µM): 0.346 | relative viability ([19]; first compound 0.06325 µM): 0.102 | relative viability ([19]; first compound 0.2 µM): 0.121 | relative viability ([20]; first compound 0.002 µM): 0.452 | relative viability ([20]; first compound 0.006325 µM): 0.338 | relative viability ([20]; first compound 0.02 µM): 0.34 | relative viability ([20]; first compound 0.06325 µM): 0.061 | relative viability ([20]; first compound 0.2 µM): 0.0723 | relative viability ([21]; first compound 0.002 µM): 0.538 | relative viability ([21]; first compound 0.006325 µM): 0.4 | relative viability ([21]; first compound 0.02 µM): 0.475 | relative viability ([21]; first compound 0.06325 µM): 0.187 | relative viability ([21]; first compound 0.2 µM): 0.179 | relative viability ([22]; first compound 0.002 µM): 0.254 | relative viability ([22]; first compound 0.006325 µM): 0.269 | relative viability ([22]; first compound 0.02 µM): 0.306 | relative viability ([22]; first compound 0.06325 µM): 0.148 | relative viability ([22]; first compound 0.2 µM): 0.124 | relative viability ([23]; first compound 0.002 µM): 0.757 | relative viability ([23]; first compound 0.006325 µM): 0.695 | relative viability ([23]; first compound 0.02 µM): 0.611 | relative viability ([23]; first compound 0.06325 µM): 0.188 | relative viability ([23]; first compound 0.2 µM): 0.149
